Reference: paper PMC9106929 (Circulation research, 2022)

Biological target: Piezo1 (Mus musculus, UniProt E2JF22)
Assay: cell-attached single-channel patch clamp, open probability
Format: cell-based
Conditions: activator, 5 μM in pipette, -50 mV; effect absent in Piezo1-EC-KO cECs

Chain of Piezo1 (E2JF22 whole entry): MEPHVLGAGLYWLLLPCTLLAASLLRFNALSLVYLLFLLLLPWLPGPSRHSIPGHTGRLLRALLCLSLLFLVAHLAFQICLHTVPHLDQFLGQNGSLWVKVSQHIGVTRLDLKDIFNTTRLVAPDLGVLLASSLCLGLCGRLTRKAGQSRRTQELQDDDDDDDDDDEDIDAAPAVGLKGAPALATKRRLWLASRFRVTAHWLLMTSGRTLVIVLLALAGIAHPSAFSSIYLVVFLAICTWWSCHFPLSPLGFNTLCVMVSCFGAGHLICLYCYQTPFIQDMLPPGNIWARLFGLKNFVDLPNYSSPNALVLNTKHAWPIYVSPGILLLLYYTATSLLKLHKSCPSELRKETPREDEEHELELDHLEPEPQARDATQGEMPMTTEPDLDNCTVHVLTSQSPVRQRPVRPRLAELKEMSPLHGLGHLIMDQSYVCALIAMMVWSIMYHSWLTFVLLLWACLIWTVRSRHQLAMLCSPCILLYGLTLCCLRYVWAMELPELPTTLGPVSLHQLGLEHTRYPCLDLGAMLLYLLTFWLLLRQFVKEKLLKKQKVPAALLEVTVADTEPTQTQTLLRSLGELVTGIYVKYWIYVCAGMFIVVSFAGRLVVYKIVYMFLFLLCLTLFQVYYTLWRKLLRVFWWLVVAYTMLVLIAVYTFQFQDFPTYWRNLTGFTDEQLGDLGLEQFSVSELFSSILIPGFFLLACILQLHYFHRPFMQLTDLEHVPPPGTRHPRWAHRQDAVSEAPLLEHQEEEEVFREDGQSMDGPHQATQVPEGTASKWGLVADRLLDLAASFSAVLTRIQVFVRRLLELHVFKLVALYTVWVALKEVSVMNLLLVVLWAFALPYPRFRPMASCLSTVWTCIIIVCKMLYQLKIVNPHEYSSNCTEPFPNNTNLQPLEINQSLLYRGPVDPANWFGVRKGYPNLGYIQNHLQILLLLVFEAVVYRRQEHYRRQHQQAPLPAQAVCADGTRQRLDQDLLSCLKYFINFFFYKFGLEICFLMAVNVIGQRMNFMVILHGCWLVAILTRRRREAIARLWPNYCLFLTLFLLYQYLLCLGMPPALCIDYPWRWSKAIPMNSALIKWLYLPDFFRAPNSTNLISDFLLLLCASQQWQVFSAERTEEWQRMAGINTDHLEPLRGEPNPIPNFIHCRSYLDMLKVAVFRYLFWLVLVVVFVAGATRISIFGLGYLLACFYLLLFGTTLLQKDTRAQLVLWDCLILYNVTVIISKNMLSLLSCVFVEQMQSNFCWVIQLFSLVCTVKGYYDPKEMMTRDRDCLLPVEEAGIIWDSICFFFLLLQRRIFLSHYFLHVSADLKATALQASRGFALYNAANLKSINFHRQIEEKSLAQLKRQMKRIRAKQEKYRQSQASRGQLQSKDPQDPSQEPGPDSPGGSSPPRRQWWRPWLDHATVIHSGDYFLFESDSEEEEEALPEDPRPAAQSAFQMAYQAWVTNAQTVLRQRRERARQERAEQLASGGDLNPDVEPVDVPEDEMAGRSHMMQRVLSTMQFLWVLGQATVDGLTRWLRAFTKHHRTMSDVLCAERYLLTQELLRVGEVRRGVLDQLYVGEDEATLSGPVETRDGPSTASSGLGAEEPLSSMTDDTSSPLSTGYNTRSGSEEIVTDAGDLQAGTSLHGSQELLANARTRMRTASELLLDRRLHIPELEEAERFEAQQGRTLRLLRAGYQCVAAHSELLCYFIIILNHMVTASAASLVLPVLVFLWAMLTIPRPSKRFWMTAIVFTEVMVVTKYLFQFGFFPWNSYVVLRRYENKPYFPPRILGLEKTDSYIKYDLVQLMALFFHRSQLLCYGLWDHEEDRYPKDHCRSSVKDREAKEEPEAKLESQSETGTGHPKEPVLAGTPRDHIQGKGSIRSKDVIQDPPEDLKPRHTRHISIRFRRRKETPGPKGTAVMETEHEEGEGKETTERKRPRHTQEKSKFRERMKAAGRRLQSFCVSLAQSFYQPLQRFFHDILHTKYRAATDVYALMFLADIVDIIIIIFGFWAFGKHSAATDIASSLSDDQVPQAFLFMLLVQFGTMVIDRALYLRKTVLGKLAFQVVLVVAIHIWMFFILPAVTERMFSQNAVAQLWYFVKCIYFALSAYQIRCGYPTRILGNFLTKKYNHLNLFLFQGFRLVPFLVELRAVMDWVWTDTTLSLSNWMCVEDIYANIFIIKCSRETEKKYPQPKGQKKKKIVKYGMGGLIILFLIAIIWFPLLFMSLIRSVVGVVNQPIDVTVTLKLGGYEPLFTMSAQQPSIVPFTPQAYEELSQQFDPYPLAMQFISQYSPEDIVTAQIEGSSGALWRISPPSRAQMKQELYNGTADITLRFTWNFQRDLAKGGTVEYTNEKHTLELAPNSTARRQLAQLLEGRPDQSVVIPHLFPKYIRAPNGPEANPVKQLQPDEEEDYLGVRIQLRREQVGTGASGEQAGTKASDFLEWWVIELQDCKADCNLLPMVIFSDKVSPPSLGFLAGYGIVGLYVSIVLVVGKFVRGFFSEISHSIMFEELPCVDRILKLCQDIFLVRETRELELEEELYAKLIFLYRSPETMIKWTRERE

Clc1cccc(Cl)c1CSc1nnc(-c2cnccn2)s1 [Yoda1]
cell-attached single-channel patch clamp, open probability: increased the open probability of Piezo1-like currents in Piezo1-EC-Ctrl cECs but not in Piezo1-EC-KO
